In patent US8299048B2, “Hexahydrocyclopentyl[f]indazole sulfonamides and derivatives thereof as selective glucocorticoid receptor modulators” (Merck Sharp & Dohme Corp., priority 2008, dated 2012):

Assays:
human GR [1] = target: T1, human GR (Homo sapiens, UniProt P04150); assay: Trans-Activation Modulation of Glucocorticoid Receptor (GRAMMER), MMTV-LUC reporter, agonist mode; type: cell-based; set-up: endogenous in cells; conditions: for Emax: A549, A549 cells, maximum activity, read-out: Transactivation A549 Cells GRAMMER Emax; for EC50: A549 cells, inflection point, read-out: Transactivation A549 Cells GRAMMER IP
T1 sequence (P04150 1-777): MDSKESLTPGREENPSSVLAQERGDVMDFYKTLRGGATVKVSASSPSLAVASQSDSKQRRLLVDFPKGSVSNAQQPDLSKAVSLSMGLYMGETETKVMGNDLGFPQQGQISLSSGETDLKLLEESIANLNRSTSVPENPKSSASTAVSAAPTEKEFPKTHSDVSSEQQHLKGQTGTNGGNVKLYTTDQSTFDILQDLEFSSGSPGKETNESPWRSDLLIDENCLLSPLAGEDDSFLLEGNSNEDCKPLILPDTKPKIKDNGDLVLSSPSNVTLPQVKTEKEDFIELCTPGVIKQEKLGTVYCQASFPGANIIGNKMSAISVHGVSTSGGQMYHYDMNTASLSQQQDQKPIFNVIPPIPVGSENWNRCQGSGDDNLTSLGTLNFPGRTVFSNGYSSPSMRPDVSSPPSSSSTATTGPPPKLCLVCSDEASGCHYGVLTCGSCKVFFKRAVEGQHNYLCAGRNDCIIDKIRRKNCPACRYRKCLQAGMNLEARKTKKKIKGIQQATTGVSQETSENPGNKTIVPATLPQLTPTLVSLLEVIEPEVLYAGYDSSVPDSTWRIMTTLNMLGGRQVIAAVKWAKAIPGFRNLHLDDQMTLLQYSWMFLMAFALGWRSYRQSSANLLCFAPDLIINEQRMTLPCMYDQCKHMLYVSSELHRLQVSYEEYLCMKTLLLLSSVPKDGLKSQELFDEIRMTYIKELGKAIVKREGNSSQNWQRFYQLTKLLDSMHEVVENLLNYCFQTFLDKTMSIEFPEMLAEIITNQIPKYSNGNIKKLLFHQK
Summary of the method: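 Readout is luciferase from a modified MMTV LTR promoter after 24 h compound exposure alongside 10 nM dexamethasone (100% activity reference), DMSO ≤1%.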

human GR [2] = target: T1, human GR; assay: Transrepression Assay (GITAR), TNFα-β-lactamase reporter in U937 cells; type: cell-based; set-up: U937 cells contain an endogenous glucocorticoid receptor (GR); endogenous in cells; host or cells: U937 cells stably transfected with the TNF-alpha promoter/beta-lactamase reporter; conditions: for GITAR > GRAMM % SEP: GITAR Emax minus GRAMMER Emax; for EC50: U937 cells, inflection point, read-out: Transrepression U937 Cells GITAR IP
Summary of the method: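 Read-out: CCF2-AM β-lactamase signal after 70–90 min loading at room temperature. U937 TNF-α-promoter reporter cells (endogenous GR), compound 30–45 min at 37 °C, then PMA 5 ng/ml + LPS 100 ng/ml final, ~18 hr. Normalised to 100 nM dexamethasone = 100%.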

[3] = U-937, U937 cells, maximum activity, read-out: Transrepression U937 Cells GITAR Emax
[4] = U-937, activity repressed by 100 nM dexamethasone alone set as 100%, read-out: maximal activity in the transrepression (GITAR) assay

| Emax (human GR [1]) | EC50 (human GR [1]) | GITAR > GRAMM % SEP (human GR [2]) | EC50 (human GR [2]) | Emax (human GR [2]; [3]) | Emax (human GR [2]; [4]) | Structure (SMILES) |
| --- | --- | --- | --- | --- | --- | --- |
| 65.4% | 0.195 µM | 25.4% | 0.128 µM | 90.8% | > 5% | Cc1noc(C)c1S(=O)(=O)N(CCc1ccccc1O)C[C@H]1CCC2=Cc3c(cnn3-c3ccc(F)cc3)C[C@@]21C [Example 123, N-{[(4αR,5S)-1-(4-fluorophenyl)-4α-methyl-1,4,4α,5,6,7-hexahydrocyclopenta[f]indazol-5-yl]methyl}-N-[2-(2-hydroxyphenyl)ethyl]-3,5-dimethylisoxazole-4-sulfonamide] |
| 4.3% | 0.547 µM | 10.8% | 0.508 µM | 15.1% | > 5% | COC(=O)c1cc(Cl)ccc1CCN(C[C@H]1CCC2=Cc3c(cnn3-c3ccc(F)cc3)C[C@@]21C)S(=O)(=O)CC(F)(F)F [Example 160, methyl 5-chloro-2-(2-{{[(4αR,5S)-1-(4-fluorophenyl)-4α-methyl-1,4,4α,5,6,7-hexahydrocyclopenta[f]indazol-5-yl]methyl}[(2,2,2-trifluoroethyl)sulfonyl]amino}ethyl)benzoate] |
| 58.8% | 0.279 µM | 42.0% | 0.441 µM | 101% | > 5% | C[C@]12Cc3cnn(-c4ccc(F)cc4)c3C=C1CC[C@@H]2CN(CC1(OS(=O)(=O)CC(F)(F)F)CC1)S(=O)(=O)CC(F)(F)F [Example 136, 1-({{[(4αR,5S)-1-(4-fluorophenyl)-4α-methyl-1,4,4α,5,6,7-hexahydrocyclopenta[f]indazol-5-yl]methyl}[(2,2,2-trifluoroethyl)sulfonyl]amino}methyl)cyclopropyl 2,2,2-trifluoroethanesulfonate] |
| 78.3% | 0.203 µM | 8.2% | 0.0951 µM | 86.5% | > 5% | CCCCS(=O)(=O)N(CCc1ccccc1F)C[C@H]1CCC2=Cc3c(cnn3-c3ccc(F)cc3)C[C@@]21C [Example 102, N-[2-(2-fluorophenyl)ethyl]-N-{[(4αR,5S)-1-(4-fluorophenyl)-4α-methyl-1,4,4α,5,6,7-hexahydrocyclopenta[f]indazol-5-yl]methyl}butane-1-sulfonamide] |
| 48.4% | 0.241 µM | 38.6% | 0.342 µM | 86.9% | > 5% | C[C@]12Cc3cnn(-c4ccc(F)cc4)c3C=C1CC[C@@H]2CN(CCc1ccccc1CO)S(=O)(=O)CC(F)(F)F [Example 163, 2,2,2-trifluoro-N-{[(4αR,5S)-1-(4-fluorophenyl)-4α-methyl-1,4,4α,5,6,7-hexahydrocyclopenta[f]indazol-5-yl]methyl}-N-{2-[2-(hydroxymethyl)phenyl]ethyl}ethanesulfonamide] |
| 4.9% | 1.1 µM | 21.3% | 0.626 µM | 26.2% | > 5% | C[C@]12Cc3cnn(-c4ccc(F)cc4)c3C=C1CC[C@@H]2CN(CC1CCCO1)S(=O)(=O)Cc1cccc(C(F)(F)F)c1 (stereo partly drawn) [Example 110, N-{[(4αR,5S)-1-(4-fluorophenyl)-4α-methyl-1,4,4α,5,6,7-hexahydrocyclopenta[f]indazol-5-yl]methyl}-N-(tetrahydrofuran-2-ylmethyl)-1-[3-(trifluoromethyl)phenyl]methanesulfonamide] |
| 48.1% | 0.123 µM | 35.0% | 0.119 µM | 83.1% | > 5% | Cc1noc(C)c1S(=O)(=O)N(C[C@H]1CCC2=Cc3c(cnn3-c3ccc(F)cc3)C[C@@]21C)C[C@@H](C)O [Example 168, N-{[(4αR,5S)-1-(4-fluorophenyl)-4α-methyl-1,4,4α,5,6,7-hexahydrocyclopenta[f]indazol-5-yl]methyl}-N-[(2R)-2-hydroxypropyl]-3,5-dimethylisoxazole-4-sulfonamide] |
| 2.9% | 0.421 µM | 16.2% | 0.223 µM | 19.2% | > 5% | C[C@]12Cc3cnn(-c4ccc(F)cc4)c3C=C1CC[C@@H]2CN(CC1CC1)S(=O)(=O)c1cc(C(F)(F)F)ccc1Cl [Example 5, 2-chloro-N-(cyclopropylmethyl)-N-{[(4αR,5S)-1-(4-fluorophenyl)-4α-methyl-1,4,4α,5,6,7-hexahydrocyclopenta[f]indazol-5-yl]methyl}-5-(trifluoromethyl)benzenesulfonamide] |
| 15.9% | 0.242 µM | 17.9% | 0.156 µM | 33.8% | > 5% | C[C@]12Cc3cnn(-c4ccc(F)cc4)c3C=C1CC[C@@H]2CN(CCc1ccccc1F)S(=O)(=O)CCN1C(=O)c2ccccc2C1=O [Example 121, 2-(1,3-dioxo-1,3-dihydro-2H-isoindol-2-yl)-N-[2-(2-fluorophenyl)ethyl]-N-{[(4αR,5S)-1-(4-fluorophenyl)-4α-methyl-1,4,4α,5,6,7-hexahydrocyclopenta[f]indazol-5-yl]methyl}ethanesulfonamide] |
| 65.7% | 0.152 µM | 19.3% | 0.124 µM | 85% | > 5% | COCCN(C[C@H]1CCC2=Cc3c(cnn3-c3ccc(F)cc3)C[C@@]21C)S(C)(=O)=O [Example 96, N-{[(4αR,5S)-1-(4-fluorophenyl)-4α-methyl-1,4,4α,5,6,7-hexahydrocyclopenta[f]indazol-5-yl]methyl}-N-(2-methoxyethyl)methanesulfonamide] |
| 70.4% | 0.559 µM | 2.7% | 0.464 µM | 73.1% | > 5% | CCCS(=O)(=O)N(CCOC)C[C@H]1CCC2=Cc3c(cnn3-c3ccc(F)cc3)C[C@@]21C [Example 95, N-{[(4αR,5S)-1-(4-fluorophenyl)-4α-methyl-1,4,4α,5,6,7-hexahydrocyclopenta[f]indazol-5-yl]methyl}-N-(2-methoxyethyl)propane-1-sulfonamide] |
| 8.7% | 0.853 µM | 25.4% | 1.05 µM | 34.1% | > 5% | COCCN(C[C@H]1CCC2=Cc3c(cnn3-c3ccc(F)cc3)C[C@@]21C)S(=O)(=O)CCN1C(=O)c2ccccc2C1=O [Example 118, 2-(1,3-dioxo-1,3-dihydro-2H-isoindol-2-yl)-N-{[(4αR,5S)-1-(4-fluorophenyl)-4α-methyl-1,4,4α,5,6,7-hexahydrocyclopenta[f]indazol-5-yl]methyl}-N-(2-methoxyethyl)ethanesulfonamide] |
| 62.1% | 0.236 µM | 24.6% | 0.0644 µM | 86.8% | > 5% | C[C@]12Cc3cnn(-c4ccc(F)cc4)c3C=C1CC[C@@H]2CN(CCc1ccccc1F)S(=O)(=O)c1ccccc1C(F)(F)F [Example 99, N-[2-(2-fluorophenyl)ethyl]-N-{[(4αR,5S)-1-(4-fluorophenyl)-4α-methyl-1,4,4α,5,6,7-hexahydrocyclopenta[f]indazol-5-yl]methyl}-2-(trifluoromethyl)benzenesulfonamide] |
| 64.9% | 0.397 µM | 14.2% | 0.192 µM | 79.1% | > 5% | C[C@]12Cc3cnn(-c4ccc(F)cc4)c3C=C1CC[C@@H]2CN(CCc1ccccc1F)S(=O)(=O)c1ccccc1Cl [Example 100, 2-chloro-N-[2-(2-fluorophenyl)ethyl]-N-{[(4αR,5S)-1-(4-fluorophenyl)-4α-methyl-1,4,4α,5,6,7-hexahydrocyclopenta[f]indazol-5-yl]methyl}benzenesulfonamide] |
| 12.3% | 0.615 µM | 34.4% | 0.465 µM | 46.6% | > 5% | C[C@]12Cc3cnn(-c4ccc(F)cc4)c3C=C1CC[C@@H]2CN(CC1CC1)S(=O)(=O)c1ccc(-c2ccccc2)cc1 [Example 10, N-(cyclopropylmethyl)-N-{[(4αR,5S)-1-(4-fluorophenyl)-4α-methyl-1,4,4α,5,6,7-hexahydrocyclopenta[f]indazol-5-yl]methyl}biphenyl-4-sulfonamide] |
